Reference: ChEMBL document CHEMBL1136092, “Enantiotracin” (2003)
Converted amounts (≈) assume the structure as drawn.

Experiments:
Format in all cases: functional
[1] = test system: Micrococcus luteus; assay: In vitro inhibitory concentration required against Micrococcus luteus (Micrococcus luteus)
[2] = test system: Staphylococcus epidermidis; assay: In vitro inhibitory concentration required against Staphylococcus epidermidis (Staphylococcus epidermidis)
[3] = test system: Staphylococcus aureus; assay: In vitro inhibitory concentration required against Staphylococcus aureus (Staphylococcus aureus)

| Structure (SMILES) | MIC [1] [µg/mL] | MIC ([2]; Staphylococcus epidermidis, read-out: MIC) [µg/mL] | MIC ([3]; Staphylococcus aureus, read-out: MIC) [µg/mL] | MIC [2] [µg/mL] | MIC [3] [µg/mL] |
| --- | --- | --- | --- | --- | --- |
| CC[C@H](C)[C@@H](N)C1=N[C@@H](C(=O)N[C@H](CC(C)C)C(=O)N[C@@H](CCC(=O)O)C(=O)N[C@@H](C(=O)N[C@@H]2CCCCNC(=O)[C@@H](CC(N)=O)NC(=O)[C@H](CC(=O)O)NC(=O)[C@@H](Cc3c[nH]cn3)NC(=O)[C@H](Cc3ccccc3)NC(=O)[C@@H]([C@@H](C)CC)NC(=O)[C@H](CCCN)NC2=O)[C@@H](C)CC)CS1 (stereo in doubt; form 1) [BACITRACIN A] | < 0.013 | 32 (≈ 22.5 µM) | 4 (≈ 2.81 µM) | – | – |
| CC[C@H](C)[C@@H](N)C1=N[C@@H](C(=O)N[C@H](CC(C)C)C(=O)N[C@@H](CCC(=O)O)C(=O)N[C@@H](C(=O)N[C@@H]2CCCCNC(=O)[C@@H](CC(N)=O)NC(=O)[C@H](CC(=O)O)NC(=O)[C@@H](Cc3c[nH]cn3)NC(=O)[C@H](Cc3ccccc3)NC(=O)[C@@H]([C@@H](C)CC)NC(=O)[C@H](CCCN)NC2=O)[C@@H](C)CC)CS1 (stereo in doubt; form 2) [BACITRACIN A] | – | – | – | 32 (≈ 22.5 µM) | 4 (≈ 2.81 µM) |
